Laboratory results taken from US8414950B2, “High-purity rebaudioside D and low-calorie table top tablet containing the same” (PureCircle Sdn Bhd, priority 2009, dated 2013).
Entries after “also recorded” stand apart in the source; their conditions may differ. Where a SMILES comes first, the peptide text is derived from it.

Legend:
[1] = cited from earlier work; for Sweetness power: standard sweetening power, saccharose = 1; for Relative sweetness: Table 2, relative to sucrose; for Sweetness potency, times higher than sucrose: related art
[2] = Table 2 and related-art text; cited from earlier work
[3] = Table 2; cited from earlier work
[4] = Solubility in organic solvents; format: physicochemical
Excerpt: Soluble in diluted solutions of methanol, ethanol, n-propanol, and isopropanol.
Insoluble in acetone, benzene, chloroform, and ether.

Heat and pH stability = format: physicochemical
[5] = Quality of taste (sensory attributes)
Excerpt: Rebaudioside D is isolated and extracted, along with other steviol glycosides, from the Stevia rebaudiana Bertoni plant (“Stevia”), which is commercially cultivated in Japan, Taiwan, Malaysia, South Korea, China, Israel, India, Brazil, Australia, and Paraguay.

[6] = Sweetness power / relative sweetness compared with sucrose; settings: high purity Rebaudioside D of the invention, compared to 10% sucrose solution
Solubility in water = format: physicochemical; settings: high purity Rebaudioside D of the invention; increases with temperature
Excerpt: Solubility in water is around 0.2% which is increasing with increase in temperature. It precipitates again upon cooling the solution. Highly soluble during chromatographic separation stage and before crystallizing.

Compound: OC[C@H]1O[C@H](O[C@]2(CCl)O[C@H](CCl)[C@@H](O)[C@@H]2O)[C@H](O)[C@@H](O)[C@H]1Cl [Sucralose]
- Sweetness power [1]: 600

Compound: COC(=O)[C@H](Cc1ccccc1)NC(=O)[C@@H](N)CC(=O)O [Aspartame] (H-Asp-Phe-OMe)
- Sweetness power [1]: 200

Compound: C=C1C[C@@]23CC[C@H]4[C@@](C)(CCC[C@@]4(C)C(=O)O[C@@H]4O[C@H](CO)[C@@H](O)[C@H](O)[C@H]4O)[C@@H]2CC[C@]1(O[C@@H]1O[C@H](CO)[C@@H](O)[C@H](O)[C@H]1O)C3 [Rubusoside]
- Quality of taste [2]: Very bitter
- Relative sweetness [1]: 110

Compound: C=C1C[C@@]23CC[C@H]4[C@@](C)(CCC[C@@]4(C)C(=O)O[C@@H]4O[C@H](CO)[C@@H](O)[C@H](O)[C@H]4O)[C@@H]2CC[C@]1(O[C@@H]1O[C@H](CO)[C@@H](O)[C@H](O)[C@H]1O[C@@H]1O[C@@H](C)[C@H](O)[C@@H](O)[C@H]1O)C3 [Dulcoside A]
- Quality of taste [2]: Very bitter
- Relative sweetness [1]: 30
- Sweetness potency, times higher than sucrose [1]: around 30 times
- Solubility in water, % [3]: 0.58%

Compound: Rebaudioside B
- Quality of taste [2]: Bitter
- Relative sweetness [1]: 150
- Solubility in water, % [3]: 0.10%

Compound: C=C1C[C@@]23CC[C@H]4[C@@](C)(CCC[C@@]4(C)C(=O)O[C@@H]4O[C@H](CO)[C@@H](O)[C@H](O)[C@H]4O)[C@@H]2CC[C@]1(O[C@@H]1O[C@H](CO)[C@@H](O)[C@H](O[C@@H]2O[C@H](CO)[C@@H](O)[C@H](O)[C@H]2O)[C@H]1O[C@@H]1O[C@H](CO)[C@@H](O)[C@H](O)[C@H]1O)C3 [Rebaudioside A]
- Quality of taste [2]: most favorable sensory attributes of the four major steviol glycosides; also recorded: Less Bitter
- Relative sweetness [1]: 200-400
- Sweetness power [1]: 450
- Solubility in water, % [3]: 0.80%

Compound: O=C1NS(=O)(=O)c2ccccc21 [Saccharine]
- Sweetness power [1]: 300

Compound: CC1(C)[C@@H](O[C@H]2O[C@H](C(=O)O)[C@@H](O)[C@H](O)[C@H]2O[C@@H]2O[C@H](C(=O)O)[C@@H](O)[C@H](O)[C@H]2O)CC[C@]2(C)[C@H]3C(=O)C=C4[C@@H]5C[C@@](C)(C(=O)O)CC[C@]5(C)CC[C@@]4(C)[C@]3(C)CC[C@@H]12 [Glycyrrhizin]
- Sweetness power [1]: 50

Compound: C=C1C[C@@]23CC[C@H]4[C@@](C)(CCC[C@@]4(C)C(=O)O[C@@H]4O[C@H](CO)[C@@H](O)[C@H](O)[C@H]4O[C@@H]4O[C@H](CO)[C@@H](O)[C@H](O)[C@H]4O)[C@@H]2CC[C@]1(O[C@@H]1O[C@H](CO)[C@@H](O)[C@H](O)[C@H]1O[C@@H]1O[C@H](CO)[C@@H](O)[C@H](O)[C@H]1O)C3 [Rebaudioside E]
- Quality of taste [2]: Like sucrose
- Relative sweetness [1]: 170
- Solubility in water, % [3]: 1.70%

Compound: C=C1C[C@@]23CC[C@H]4[C@@](C)(CCC[C@@]4(C)C(=O)O[C@@H]4O[C@H](CO)[C@@H](O)[C@H](O)[C@H]4O)[C@@H]2CC[C@]1(O[C@@H]1O[C@H](CO)[C@@H](O)[C@H](O)[C@H]1O[C@@H]1O[C@H](CO)[C@@H](O)[C@H](O)[C@H]1O)C3 [Stevioside]
- Quality of taste [2]: Bitter
- Relative sweetness [1]: 210
- Sweetness potency, times higher than sucrose [1]: around 210 times
- Sweetness power [1]: 200
- Solubility in water, % [3]: 0.13%

Compound: C=C1C[C@@]23CC[C@H]4[C@@](C)(CCC[C@@]4(C)C(=O)O[C@@H]4O[C@H](CO)[C@@H](O)[C@H](O)[C@H]4O[C@@H]4O[C@H](CO)[C@@H](O)[C@H](O)[C@H]4O)[C@@H]2CC[C@]1(O[C@@H]1O[C@H](CO)[C@@H](O)[C@H](O[C@@H]2O[C@H](CO)[C@@H](O)[C@H](O)[C@H]2O)[C@H]1O[C@@H]1O[C@H](CO)[C@@H](O)[C@H](O)[C@H]1O)C3 [Rebaudioside D]
- Solubility in non-alcohol organic solvents ([4]; acetone, benzene, chloroform, and ether): Insoluble
- Solubility in diluted alcohols ([4]; diluted solutions of methanol, ethanol, n-propanol, and isopropanol): Soluble
- Quality of taste [2]: Like sucrose
- Heat and pH stability (Heat and pH stability): heat and pH-stable
- Relative sweetness [1]: 220
- Solubility in water, % [3]: 1.00%
- Bitterness and aftertaste / sensory properties ([5]; amongst the sweet diterpenoid glycosides of Stevia): the least bitter, and with the least persistent aftertaste
- Bitterness and aftertaste / sensory properties ([5]; amongst the sweet diterpenoid glycosides of Stevia; listed as Rebaudioside 1)): excellent sensory properties
- times sweeter than sugar [6]: 180-200 times
- Solubility in water (Solubility in water): around 0.2%

Compound: CC1=CC(=O)NS(=O)(=O)O1 [Acesulfame-K]
- Sweetness power [1]: 200

Compound: Rebaudioside C
- Quality of taste [2]: Bitter
- Relative sweetness [1]: 30
- Sweetness potency, times higher than sucrose [1]: around 30 times
- Solubility in water, % [3]: 0.21%

Compound: COc1ccc(CCC(=O)c2c(O)cc(O[C@@H]3O[C@H](CO)[C@@H](O)[C@H](O)[C@H]3O[C@@H]3O[C@@H](C)[C@H](O)[C@@H](O)[C@H]3O)cc2O)cc1O [NHDC, neohesperidin dihydrochalcone]
- Sweetness power [1]: 1000

Compound: C=C1C[C@@]23CC[C@H]4[C@@](C)(CCC[C@@]4(C)C(=O)O)[C@@H]2CC[C@]1(O[C@@H]1O[C@H](CO)[C@@H](O)[C@H](O)[C@H]1O[C@@H]1O[C@H](CO)[C@@H](O)[C@H](O)[C@H]1O)C3 [Steviolbioside]
- Quality of taste [2]: Unpleasant
- Relative sweetness [1]: 90
- Solubility in water, % [3]: 0.03%

Compound: Thaumatin
- Sweetness power [1]: 3000

Compound: OC[C@H]1O[C@@](CO)(O[C@H]2O[C@H](CO)[C@@H](O)[C@H](O)[C@H]2O)[C@@H](O)[C@@H]1O [Saccharose]
- Sweetness power [1]: 1

Compound: C=C1C[C@@]23CC[C@H]4[C@@](C)(CCC[C@@]4(C)C(=O)O)[C@@H]2CC[C@]1(O)C3 [Steviol]
- Quality of taste [2]: Very bitter

Compound: C[C@@H](NC(=O)[C@@H](N)CC(=O)O)C(=O)NC1C(C)(C)SC1(C)C [Alitame]
- Sweetness power [1]: 2000
